One data set addresses T1, rat mGluR5 receptor (Rattus norvegicus, UniProt P31424).
T1 construct: expressed in transfected cells
As to the kind of experiment: mGluR5 assay on HEK-expressing rat mGluR5 (fluorescent cell based Ca2+ mobilization assay). To be noted: HEK-293 cells stably expressing rat mGluR5; no co-addition of glutamate; mean of at least three independent experiments in duplicate; read-out: Ca++ Flux (mean EC50). As to the method: Positive functional expression of HEK-293 cells stably expressing rat mGluR5 receptor was determined by measuring intracellular Ca^2+ changes using a Fluorometric Imaging Plate Reader (FLIPR, Molecular Devices, Sunnyvale, Calif.) in response to glutamate or selective known mGluR5 agonists and antagonists. Rat mGluR5 RT-PCR products in HEK-293 cells were sequenced and found 100% identical to rat mGluR5 Genbank reference sequence (NM_017012). HEK-293 cells expressing rmGluR5 were maintained in media containing DMEM, dialyzed Fetal Bovine Serum (10%), Glutamax™ (2 mM), Penicillin (100 units/ml), Streptomycin (100 μg/ml), Geneticin (100 μg/ml) and Hygromycin-B (40 μg/ml) at 37° C./5% CO2.
After one day of incubation, cells were washed with assay buffer containing: 142 mM NaCl, 6 mM KCl, 1 mM Mg2SO4, 1 mM CaCl2, 20 mM HEPES, 1 g/L glucose, 0.125 mM sulfinpyrazone, pH 7.4. After 60 min of loading with 4 uM Fluo-4 (TefLabs, Austin, Tex.), the cells were washed three times with 50 μl of PBS Buffer and resuspended in […] of assay Buffer. The plates were then transferred to a Fluorometric Imaging Plate Reader (FLIPR, Molecular Devices, Sunnyvale, Calif.) for the assessment of intracellular calcium flux. After monitoring the baseline fluorescence for 10 seconds, increasing concentrations of representative compound (from 0.01 to 60 μM) of the present invention diluted in Assay Buffer (15 μl of 4× dilutions) was added to the cell. The final DMSO concentration in the assay was 0.3%. In each experiment, fluorescence was then monitored as a function of time for 3 minutes and the data analyzed using Microsoft Excel and GraphPad Prism. Each data point was also measured two times.
Under these experimental conditions, this HEK-rat mGluR5 cell line is able to directly detect positive allosteric modulators without the need of co-addition of glutamate or mGluR5 agonist.
The concentration-response curves of representative compounds of the present invention were generated using the Prism GraphPad software (Graph Pad Inc, San Diego, USA). The curves were fitted to a four-parameter logistic equation:
(Y=Bottom+(Top-Bottom)/(1+10̂((Log EC50−X)*Hill Slope)
allowing determination of EC50 values.
The Table 1 below represents the mean EC50 obtained from at least three independent experiments of selected molecules performed in duplicate.

T1 sequence (P31424 21-1171 isoform P31424-2 limits assumed): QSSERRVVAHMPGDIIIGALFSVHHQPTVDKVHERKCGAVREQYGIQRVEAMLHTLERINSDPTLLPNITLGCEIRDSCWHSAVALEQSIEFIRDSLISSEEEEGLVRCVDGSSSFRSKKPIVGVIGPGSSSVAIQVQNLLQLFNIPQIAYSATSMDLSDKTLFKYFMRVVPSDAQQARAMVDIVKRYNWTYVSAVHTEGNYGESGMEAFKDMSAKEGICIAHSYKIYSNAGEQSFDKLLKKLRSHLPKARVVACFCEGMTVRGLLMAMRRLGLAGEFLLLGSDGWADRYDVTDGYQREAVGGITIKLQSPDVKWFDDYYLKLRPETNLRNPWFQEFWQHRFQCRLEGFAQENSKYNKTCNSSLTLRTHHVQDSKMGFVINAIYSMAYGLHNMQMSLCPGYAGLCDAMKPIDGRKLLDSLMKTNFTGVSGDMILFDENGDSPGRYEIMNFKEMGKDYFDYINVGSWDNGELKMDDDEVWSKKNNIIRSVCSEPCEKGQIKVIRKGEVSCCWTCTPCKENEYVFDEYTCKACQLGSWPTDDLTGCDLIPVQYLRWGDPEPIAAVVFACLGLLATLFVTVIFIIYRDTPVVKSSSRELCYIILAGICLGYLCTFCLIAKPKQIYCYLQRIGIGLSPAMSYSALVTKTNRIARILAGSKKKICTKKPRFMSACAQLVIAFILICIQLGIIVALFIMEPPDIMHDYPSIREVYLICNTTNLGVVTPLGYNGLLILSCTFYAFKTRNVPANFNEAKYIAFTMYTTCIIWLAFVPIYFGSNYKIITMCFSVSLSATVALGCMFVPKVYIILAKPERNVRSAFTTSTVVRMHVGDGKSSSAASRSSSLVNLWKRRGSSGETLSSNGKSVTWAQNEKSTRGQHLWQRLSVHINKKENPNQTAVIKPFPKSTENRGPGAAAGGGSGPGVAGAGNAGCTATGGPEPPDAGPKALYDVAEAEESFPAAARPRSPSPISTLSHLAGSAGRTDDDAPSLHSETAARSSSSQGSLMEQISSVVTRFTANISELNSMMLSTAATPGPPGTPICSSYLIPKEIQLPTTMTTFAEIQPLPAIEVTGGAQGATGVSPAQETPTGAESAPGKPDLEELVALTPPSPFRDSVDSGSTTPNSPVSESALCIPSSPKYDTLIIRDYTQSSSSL

On to `O=C(c1ccc(F)cc1)N1CCC[C@@H](c2noc(-c3ccc(F)cc3)n2)C1` [Example 2, (4-Fluoro-phenyl)-{(R)-3-[5-(4-fluoro-phenyl)-[1,2,4]oxadiazol-3-yl]-piperidin-1-yl}-methanone], for which the melting point (usually the temperature, or range, at which the solid turns liquid) was in the range of 120 to 123 °C. Also, at rat mGluR5 receptor, the EC50 – broadly, the concentration giving half of the maximal effect – fell in the range of 1 to 10 µM.

With `O=C(c1ccc(F)c(F)c1)N1CCCC(c2noc(-c3ccccc3F)n2)C1` (stereo not drawn) [Example 3, (3,4-Difluoro-phenyl)-{3-[5-(2-fluoro-phenyl)-[1,2,4]oxadiazol-3-yl]-piperidin-1-yl}-methanone], the melting point lay in the range of 80 to 83 °C. The EC50 on rat mGluR5 receptor is below 1 µM.

For the molecule `O=C(c1ccc(F)cc1F)N1CCCC(c2noc(-c3ccccc3F)n2)C1` (stereo not drawn) [Example 4, (2,4-Difluoro-phenyl)-{3-[5-(2-fluoro-phenyl)-[1,2,4]oxadiazol-3-yl]-piperidin-1-yl}-methanone], the concentration for a half-maximal effect (EC50) on rat mGluR5 receptor is below 1 µM.

As to `CNc1cc(F)ccc1C(=O)N1CCCC(c2noc(-c3ccccc3F)n2)C1` (stereo not drawn) [Example 5, (4-Fluoro-2-methylamino-phenyl)-{3-[5-(2-fluoro-phenyl)-[1,2,4]oxadiazol-3-yl]-piperidin-1-yl}-methanone], on rat mGluR5 receptor, the concentration giving a half-maximal response (EC50) fell in the range of 1 to 10 µM.

Regarding `Cc1oncc1C(=O)N1CCCC(c2noc(-c3ccccc3F)n2)C1` (stereo not drawn) [Example 7, {3-[5-(2-Fluoro-phenyl)-[1,2,4]oxadiazol-3-yl]-piperidin-1-yl}-(5-methyl-isoxazol-4-yl)-methanone], the concentration giving a half-maximal response (EC50) at rat mGluR5 receptor was below 1 µM.

`O=C(c1ccc(F)cc1)N1CCCC(c2noc(-c3cscn3)n2)C1` (stereo not drawn) [Example 8, (4-Fluoro-phenyl)-[3-(5-thiazol-4-yl-[1,2,4]oxadiazol-3-yl)-piperidin-1-yl]-methanone] displayed a melting point of 128 °C. Besides, the EC50 at rat mGluR5 receptor lay in the range of 1 to 10 µM.

Regarding `O=C(c1ccc(F)nc1)N1CCCC(c2noc(-c3ccc(F)cc3)n2)C1` (stereo not drawn) [Example 9, {3-[5-(4-Fluoro-phenyl)-[1,2,4]oxadiazol-3-yl]-piperidin-1-yl}-(6-fluoro-pyridin-3-yl)-methanone], the melting point lay within 131 to 134 °C. Also, at rat mGluR5 receptor, the EC50 was below 1 µM.

In turn, `O=C(c1ccc(F)c(F)c1)N1CCCC(c2noc(-c3ccc(F)cc3)n2)C1` (stereo not drawn) [Example 10, (3,4-Difluoro-phenyl)-{3-[5-(4-fluoro-phenyl)-[1,2,4]oxadiazol-3-yl]-piperidin-1-yl}-methanone] yielded a melting point of 149 to 152 °C. Further, the EC50 at rat mGluR5 receptor is below 1 µM.

As for `O=C(c1ccc(F)cc1)N1CCCC(c2noc(-c3ccccn3)n2)C1` (stereo not drawn) [Example 11, (4-Fluoro-phenyl)-[3-(5-pyridin-2-yl-[1,2,4]oxadiazol-3-yl)-piperidin-1-yl]-methanone], the melting point fell in the range of 126 to 129 °C. Besides, the EC50 on rat mGluR5 receptor lay in the range of 1 to 10 µM.

In turn, `O=C(c1ccc(F)nc1)N1CCCC(c2noc(-c3ccccn3)n2)C1` (stereo not drawn) [Example 12, (6-Fluoro-pyridin-3-yl)-[3-(5-pyridin-2-yl-[1,2,4]oxadiazol-3-yl)-piperidin-1-yl]-methanone] displayed a melting point of 124 to 126 °C. In addition, the EC50 on rat mGluR5 receptor lay in the range of 1 to 10 µM.

As for `Cc1oncc1C(=O)N1CCCC(c2noc(-c3ccncc3)n2)C1` (stereo not drawn) [Example 20, (5-Methyl-isoxazol-4-yl)-[3-(5-pyridin-4-yl-[1,2,4]oxadiazol-3-yl)-piperidin-1-yl]-methanone], the EC50 at rat mGluR5 receptor was above 10 µM.

On to `Cc1cc(F)ccc1C(=O)N1CCCC(c2noc(-c3ccncc3)n2)C1` (stereo not drawn) [Example 22, (4-Fluoro-2-methyl-phenyl)-[3-(5-pyridin-4-yl-[1,2,4]oxadiazol-3-yl)-piperidin-1-yl]-methanone], for which the concentration for a half-maximal effect (EC50) on rat mGluR5 receptor lay within 1 to 10 µM.

Turning to `Cc1cc(F)ccc1C(=O)N1CCCC(c2noc(-c3ccccc3F)n2)C1` (stereo not drawn) [Example 23, (4-Fluoro-2-methyl-phenyl)-{3-[5-(2-fluoro-phenyl)-[1,2,4]oxadiazol-3-yl]-piperidin-1-yl}-methanone], the EC50 on rat mGluR5 receptor was in the range of 1 to 10 µM.

`O=C(c1ccc(F)cc1)N1CCCC(c2noc(-c3ccccc3)n2)C1` (stereo not drawn) [Example 26, (4-Fluoro-phenyl)-[3-(5-phenyl-[1,2,4]oxadiazol-3-yl)-piperidin-1-yl]-methanone]: the concentration for a half-maximal effect (EC50) at rat mGluR5 receptor was below 1 µM.

As to `Cc1cc(F)ccc1C(=O)N1CCCC(c2noc(-c3ccccc3)n2)C1` (stereo not drawn) [Example 34, (4-Fluoro-2-methyl-phenyl)-[3-(5-phenyl-[1,2,4]oxadiazol-3-yl)-piperidin-1-yl]-methanone], the EC50 at rat mGluR5 receptor fell in the range of 1 to 10 µM.

For `O=C(c1ccc(F)cc1)N1CCCC(c2noc(C3CCCC3)n2)C1` (stereo not drawn) [Example 35, (4-Fluoro-phenyl)-[3-(5-cyclopentyl-[1,2,4]oxadiazol-3-yl)-piperidin-1-yl]-methanone], at rat mGluR5 receptor, the half-maximal effective concentration (EC50) is 1 to 10 µM.

For the molecule `O=C(c1ccncc1F)N1CCC[C@H](c2noc(-c3ccc(F)cc3)n2)C1` [Example 41, {(S)-3-[5-(4-Fluoro-phenyl)-[1,2,4]oxadiazol-3-yl]-piperidin-1-yl}-(3-fluoro-pyridin-4-yl)-methanone], the 50% effective concentration (EC50) at rat mGluR5 receptor was below 1 µM.

Turning to `O=C(c1cncc(F)c1)N1CCC[C@H](c2noc(-c3ccc(F)cc3)n2)C1` [Example 43, {(S)-3-[5-(4-Fluoro-phenyl)-[1,2,4]oxadiazol-3-yl]-piperidin-1-yl}-(5-fluoro-pyridin-3-yl)-methanone], the concentration giving a half-maximal response (EC50) on rat mGluR5 receptor was 1 to 10 µM.

With `O=C(c1ccc(F)c(F)c1)N1CCC[C@H](c2noc(-c3ccc(F)cn3)n2)C1` [Example 45, (S)-(3,4-difluorophenyl)-{3-[5-(5-fluoropyridin-2-yl)-[1,2,4]oxadiazol-3-yl]-piperidin-1-yl}-methanone], the EC50 at rat mGluR5 receptor was below 1 µM.

Take `O=C(c1ccc(F)cc1)N1CCC[C@H](c2noc(-c3ccccn3)n2)C1` [Example 46, (S)-(4-fluorophenyl)-{3-[5-(pyridin-2-yl)-[1,2,4]oxadiazol-3-yl]-piperidin-1-yl}-methanone]: the half-maximal effective concentration (EC50) on rat mGluR5 receptor fell in the range of 1 to 10 µM.

Turning to `O=C(c1ccc(F)c(F)c1)N1CCC[C@H](c2noc(-c3ccccn3)n2)C1` [Example 47, (S)-(3,4-Difluorophenyl)-{3-[5-(pyridin-2-yl)-[1,2,4]oxadiazol-3-yl]-piperidin-1-yl}-methanone], the concentration for a half-maximal effect (EC50) on rat mGluR5 receptor is below 1 µM.

Consider `Cn1cnc(-c2nc([C@H]3CCCN(C(=O)c4ccc(F)cc4)C3)no2)c1` [Example 48, (4-Fluoro-phenyl)-{(S)-3-[5-(1-methyl-1H-imidazol-4-yl)-[1,2,4]oxadiazol-3-yl]-piperidin-1-yl}-methanone], for which the concentration giving a half-maximal response (EC50) at rat mGluR5 receptor is above 10 µM.

`O=C(c1ccc(F)cc1)N1CCC[C@H](c2noc(-c3ccncc3F)n2)C1` [Example 49, (4-Fluoro-phenyl)-{(S)-3-[5-(3-fluoro-pyridin-4-yl)-[1,2,4]oxadiazol-3-yl]-piperidin-1-yl}-methanone]: on rat mGluR5 receptor, the EC50 lay within 1 to 10 µM.

In the case of `O=C(c1ccc(F)c(F)c1)N1CCC[C@H](c2noc(-c3ccncc3F)n2)C1` [Example 50, (3,4-Difluoro-phenyl)-{(S)-3-[5-(3-fluoro-pyridin-4-yl)-[1,2,4]oxadiazol-3-yl]-piperidin-1-yl}-methanone], on rat mGluR5 receptor, the concentration giving a half-maximal response (EC50) lay within 1 to 10 µM.

Regarding `O=C(c1c(F)cc(F)cc1F)N1CCC[C@H](c2noc(-c3ccccn3)n2)C1` [Example 51, [(S)-3-(5-Pyridin-2-yl-[1,2,4]oxadiazol-3-yl)-piperidin-1-yl]-(2,4,6-trifluoro-phenyl)-methanone], the EC50 on rat mGluR5 receptor is below 1 µM.

`O=C(c1ccc(F)c(F)c1F)N1CCC[C@H](c2noc(-c3ccccn3)n2)C1` [Example 52, [(S)-3-(5-Pyridin-2-yl-[1,2,4]oxadiazol-3-yl)-piperidin-1-yl]-(2,3,4-trifluoro-phenyl)-methanone]: the EC50 on rat mGluR5 receptor is below 1 µM.

With `O=C(c1c(F)cccc1F)N1CCC[C@H](c2noc(-c3ccccn3)n2)C1` [Example 53, (2,6-Difluoro-phenyl)-[(S)-3-(5-pyridin-2-yl-[1,2,4]oxadiazol-3-yl)-piperidin-1-yl]-methanone], the EC50 on rat mGluR5 receptor was 1 to 10 µM.

Regarding `O=C(c1cc(F)ccc1F)N1CCC[C@H](c2noc(-c3ccccn3)n2)C1` [Example 54, (2,5-Difluoro-phenyl)-[(S)-3-(5-pyridin-2-yl-[1,2,4]oxadiazol-3-yl)-piperidin-1-yl]-methanone], at rat mGluR5 receptor, the half-maximal effective concentration (EC50) is below 1 µM.

Consider `O=C(c1cccc(F)c1F)N1CCC[C@H](c2noc(-c3ccccn3)n2)C1` [Example 55, (2,3-Difluoro-phenyl)-[(S)-3-(5-pyridin-2-yl-[1,2,4]oxadiazol-3-yl)-piperidin-1-yl]-methanone], for which, at rat mGluR5 receptor, the concentration for a half-maximal effect (EC50) lay within 1 to 10 µM.

Source of the values: US20090215822A1, “Substituted Oxadiazole Derivatives as Positive Allosteric Modulators of Metabotropic Glutamate Receptors” (NIKEM RESEARCH SRL, priority 2005, published 2009).
